Laboratory results: PMC2692205 (Chembiochem : a European journal of chemical biology, 2008)

Biological target: SaDUF62 (Salinispora arenicola, UniProt A8M783)
Assay: biochemical

Chain of SaDUF62 (A8M783 whole entry): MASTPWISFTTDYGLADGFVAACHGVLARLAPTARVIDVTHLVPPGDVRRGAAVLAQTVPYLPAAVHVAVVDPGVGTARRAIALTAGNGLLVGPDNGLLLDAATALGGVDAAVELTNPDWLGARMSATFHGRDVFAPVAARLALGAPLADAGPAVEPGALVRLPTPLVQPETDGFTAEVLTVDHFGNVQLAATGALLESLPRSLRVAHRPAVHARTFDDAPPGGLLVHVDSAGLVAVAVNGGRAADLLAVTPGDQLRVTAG

`Cl` [chloride] was tested, and the Ki was 1000 µM.
